A short description of assay [1]: Growth inhibition of embryonic cells of stage 8 Xenopus laevis blastulae at 10 ug/mL. The assay is classed as functional. Particulars: Blastula stage.
Assay [2] is described as follows: Induction of cleavage arrest in embryonic cells of stage 8 Xenopus laevis blastulae. The assay is classed as functional, cell-based. Particulars: Blastula.
Assay [3] in a line: Induction of cleavage arrest in embryonic cells of stage 8 Xenopus laevis blastulae at 1 ug/mL. The class given is functional, Blastula.

Here are results for two compounds from ChEMBL document CHEMBL1149830, “Kadsuracoccinic acids A-C, ring-A seco-lanostane triterpenes from Kadsura coccinea and their effects on embryonic cell division of Xenopus laevis” (J Nat Prod, 2008).

What is called inhibition is the drop in the measured response relative to a control, in per cent. Read a high inhibition as a response far below the control. The IC50 is the concentration at which inhibition is half-maximal.

In assay [1], `O=c1[nH]cc(F)c(=O)[nH]1` [FLUOROURACIL] had an inhibition at 10 µg/mL of 47%. Also, the IC50 in assay [2] worked out at 26.8 µM.

Compound `C=C(C)[C@@H]1CC[C@@H]2C(=CC[C@]3(C)/C(=C(/C)CC/C=C(/C)C(=O)O)CC[C@@]23C)[C@@]1(C)CCC(=O)O` [KADSURACOCCINIC ACID A] had a concentration for half-maximal inhibition (IC50) in assay [2] of 0.68 µM. The compound also gave an Activity in assay [3] of 85%.
